According to US20210267948A1, “TREATMENT OF CANCER” (CITY OF HOPE, priority 2017, published 2021):

How the values were obtained:
[1] = tested on: HCC1937+BRCA1; experiment: Microarray gene ontology enrichment, HCC1937+BRCA1; type: cell-based, human; settings: genes downregulated, HCC1937 + BRCA1-COH29 vs HCC1937 + BRCA1
Procedure: FDR values were calculated using the method of Benjamini and Hochberg (28) from the distribution of ANOVA with Linear Contrastp-values. Gene ontology (GO) (29) enrichment analysis was performed within PARTEK® GENOMICS SUITE™, and GO categories were defined significant with a Fisher Exact test p-value<0.05.
To identify the mechanism through which COH29 preferentially lyses BRCA1-mutant human cancer cells, genome-wide microarray analysis was performed using the AFFYMETRIX® GENECHIP® microarray platform to identify the gene expression profiles and pathways affected by COH29 treatment. The RNA expression profile of COH29 treated HCC1937 breast cancer cells lacking BRCA1 was compared with that of COH29 treated HCC1937+BRCA1 cells. […] For example, DNA ligation involved in DNA repair is more strongly enriched in HCC1937 cells which may relate to the phenotypic effect.

[2] = tested on: wild-type zebrafish embryos; experiment: Zebrafish genotoxicity assay; type: in vivo, Danio rerio; settings: embryos treated 1 to 7 dpf, COH29 0-100 μM
Procedure: The PARP1 activity was determined using the PARP1 Chemiluminescent Assay Kit (BPS Bioscience, San Diego) according to the manufacturer's protocol. Briefly, the ribosylation reaction was carried out with activated DNA in PARP assay buffer using test inhibitor, positive control, substrate control and blank reactions, for 1 hour at 25° C. Detection was by streptavidin-HRP with chemiluminescent substrate A and B read in a luminometer. NZebrafish (Danio rerio) were obtained from zebrafish Core facility of Taipei Medical University and maintained at 28° C. on a 14 h light/10 h dark cycle. Embryos were incubated at 28° C. and different developmental stages were determined as described (25). Wild-type embryos were treated with different concentrations of HU (0, 5, 10, 20, 50 mM) or COH29 (0, 10, 20, 50, 100 μM) at 20 hpf to evaluate the mutagenic effect. Fifteen embryos were treated per well condition. […] Embryos were observed using an Olympus IX70-FLA inverted fluorescence microscope. Images were taken using SPOT digital camera system (Diagnostic Instruments, Sterling Heights, Mich., USA) and assembled with Image) software (26).
To assess the genotoxicity of COH29, wild-type zebrafish embryos were treated from 1 to 7 dpf (day post-fertilization) with a range of doses of COH29 (0-100 μM) and compared to embryos similarly treated with HU (0-50 mM) which is known to cause developmental defects.

[3] = Exposure in animal toxicology studies; settings: in vivo, read-out: AUC, maximum level observed
Procedure: Maximum dose level is capped at 2400 mg/day (Dose Level 8) corresponding to closest highest level achieved in animal studies. […] Intrapatient dose escalation is permissible if a dose level has been cleared.

O=C(Nc1nc(-c2ccc(O)c(O)c2)c(-c2ccccc2)s1)c1ccc(O)c(O)c1 [COH29, N-(4-(3,4-dihydroxyphenyl)-5-phenylthiazol-2-yl)-3,4-dihydroxybenzamide]
Genes (n): DNA ligation involved in DNA repair [1]: 3
Genes (n): DNA repair [1]: 44
Genes (n): DSB repair [1]: 14
Genes (n): DSB repair via HR [1]: 9
Genes (n): DSB repair via NHEJ [1]: 3
viability of embryos [2]: no developmental defects (FIG. 5C) or decrease in viability
developmental defects ([2]; HU 0-50 mM): no developmental defects
AUC [3]: 5000 ng·h/mL
